In US10988462B2, “Pyrazole compounds substituted with heteroaryl and pharmaceutical use thereof” (Japan Tobacco Inc., priority 2018, dated 2021):

What was measured:
human SGLT1 = human SGLT1 (Homo sapiens (Human), UniProt P13866); assay: SGLT1 inhibitory activity: intracellular uptake of 14C-AMG in human SGLT1-stably-expressing CHO-K1 cell line; format: cell-based; details: human SGLT1-stably-expressing CHO-K1 cells, 14C-AMG uptake; read-out: hSGLT1 IC50
Description: SGLT1 inhibitory activities of test compounds (IC50 values) were calculated based on the amount of intracellular uptake of labelled α-methyl-D-glucopyranoside (^14C-AMG) transported by SGLT1.
1) Formation of Human SGLT1-Expressing Plasmid
A DNA fragment containing human SGLT1 was amplified by PCR (Polymerase Chain Reaction) using pCMV6-hSGLT1 (OriGene) as a template. In the human SGLT1, NheI recognition and cleavage sequence was added to the upstream of Kozac consensus sequence derived from a vector, and a stop codon, TAG, and SalI recognition and cleavage sequence were added to the immediate downstream of the protein-translating region of human SGLT1. The purified DNA fragment was cleaved by restriction enzymes NheI and SalI, followed by ligation with pcDNA3.1 (+) which was cleaved by NheI and XhoI, thereby forming human SGLT1-expressing plasmid, pcDNA-hSGLT1. The nucleic acid sequence of human SGLT1 inserted into a vector was completely identical to the protein-translated region of human SGLT1 sequence (Accession number NM_000343) registered in GenBank, and the sequence of the portion connected to the vector was as expected.
2) Establishment of Human SGLT1-Stably-Expressing Cell Lines
Human SGLT-expressing plasmid, pcDNA-hSGLT1, was transfected into each CHO-K1 cell by Lipofectamine 2000 (Invitrogen) and cultured in the presence of G418 (Nacalai Tesque) to select drug-resistant cell lines. A cell line having the highest ratio (S/B ratio) of the amount of intracellular uptake of ^14C-AMG per cell to the amount of intracellular uptake of ^14C-AMG after treatment with a SGLT inhibitor, phlorizin, was selected as a human SGLT1-stably-expressing cell line from the drug-resistant cell lines.
3) Assessment of SGLT1 Inhibitory Activity
Human SGLT1-stably-expressing cell lines were seeded at 5×10^4 cells/well on BioCoat™ Poly-D-Lysine 96 well plate with Lid (Becton, Dickinson and Company) and cultured at 37° C. under 5% CO2 overnight. The medium was replaced with 100 μL/well of Na(−) buffer (140 mM choline chloride, 2 mM KCl, 1 mM MgCl2, 1 mM CaCl2, 10 mM HEPES, 5 mM Tris, pH 7.4), and then the mixture was let stand at 37° C. under 5% CO2 for 20 minutes. After removal of Na(−) buffer, thereto was added 40 μL/well of a test compound solution prepared with Na(+) buffer (140 mM NaCl, 2 mM KCl, 1 mM MgCl2, 1 mM CaCl2, 10 mM HEPES, 5 mM Tris, pH 7.4) comprising BSA. Then, thereto was added 40 μL/well of Na(+) buffer comprising 8 kBq of ^14C-AMG and 2 mM AMG, and the mixture was mixed well. For a blank, 40 μL/well of Na(−) buffer comprising BSA was added, and in addition, 40 μL/well of Na(−) buffer comprising 8 kBq of ^14C-AMG and 2 mM AMG was added, and the mixture was mixed well. After incubation by being let stand for 1 hour at 37° C. under 5% CO2, cells were washed twice with 100 μL/well of ice-cooled wash buffer (100 mM AMG, 140 mM choline chloride, 2 mM KCl, 1 mM MgCl2, 1 mM CaCl2, 10 mM HEPES, 5 mM Tris, pH 7.4) to terminate the reaction. A cell lysate was prepared by addition of 50 μL/well of 0.2N aqueous NaOH solution. In the assessment for the uptake ability of ^14C-AMG, the total amount of the cell lysate was transferred to OptiPlate 96 (Perkin-Elmer) with 100 μL/well of MicroScint-40 (Perkin-Elmer) dispensed and ^14C of CPM was measured with TOPCOUNT NXT (Perkin-Elmer).
Data was calculated by deducting the average value of CPM for blank well from the average value of CPM for each well treated. An inhibition rate for each test compound in each concentration was calculated from the following equation: [(A−B)/A]×100 wherein A is data for a solvent control and B is data for treatment with each test compound.

[1] = system: Salmonella typhimurium TA98; assay: Ames test (reverse mutation test), pre-incubation method, strain TA98; details: for potential to induce reverse mutations: TA98, in the presence of S9 mix
Description: (§1) Ames Test (Reverse Mutation Test)
(§2) Metabolites 1 to 3 and Metabolites A to E were each tested herein. The purpose of this test is to evaluate the potential of each metabolite to induce reverse mutations in the standard strains of Salmonella typhimurium (TA98, TA1537, TA100, and TA1535) and Escherichia coli (WP2uvrA), in either the presence or absence of a rat liver metabolic activation system (S9 mix).
(§3) The solvent used herein was dimethyl sulfoxide (DMSO, 100 μL/plate).
(§4) The test was performed by the pre-incubation method with or without S9 mix. When the test was performed without S9 mix, sodium phosphate buffer solution (pH 7.4) was added.
(§5) 0.5 mL of S9 mix or 0.5 mL of 0.1 mol/L sodium phosphate buffer solution (pH 7.4), and 0.1 mL of the bacterial culture solution were added to a test tube containing 0.1 mL of the negative control formulation (DMSO alone), the metabolite, or the positive control formulation. The mixtures were pre-incubated at 37° C. for 20 minutes while shaking. After the pre-incubation period, 2 mL of top agar were added and the mixtures were vortex-mixed and seeded onto plates. Two plates per treatment were used. Each plate was incubated at 37±1° C. for 48 hours or more and the revertant colonies were counted. The mean number of revertant colonies for each treatment plate was then calculated. The presence or absence of growth inhibition due to any antibacterial effect of the test article and precipitation of the test article was observed grossly or under a stereomicroscope. […] Evaluation was based on mean values with no statistical comparisons being used.

[2] = system: Salmonella typhimurium TA1537; assay: Ames test (reverse mutation test), pre-incubation method, strain TA1537; format: cell-based; details: for potential to induce reverse mutations: TA1537, in the presence of S9 mix
Description: as §1, §2, §3, §4, §5

Escherichia coli WP2uvrA = assay: Ames test (reverse mutation test), pre-incubation method, strain WP2uvrA; format: cell-based
Source text: as §1
Two plates per treatment were used.

[3] = system: Salmonella typhimurium TA100; assay: Ames test (reverse mutation test), pre-incubation method, strain TA100; format: cell-based; details: for potential to induce reverse mutations: TA100, in the presence of S9 mix
Description: as §1, §2, §3, §4, §5

[4] = system: Salmonella typhimurium TA1535; assay: Ames test (reverse mutation test), pre-incubation method, strain TA1535; format: cell-based; details: TA1535; in the absence of S9 mix
Description: as §1, §2, §3, §4, §5

Sequence of human SGLT1 (P13866 whole entry): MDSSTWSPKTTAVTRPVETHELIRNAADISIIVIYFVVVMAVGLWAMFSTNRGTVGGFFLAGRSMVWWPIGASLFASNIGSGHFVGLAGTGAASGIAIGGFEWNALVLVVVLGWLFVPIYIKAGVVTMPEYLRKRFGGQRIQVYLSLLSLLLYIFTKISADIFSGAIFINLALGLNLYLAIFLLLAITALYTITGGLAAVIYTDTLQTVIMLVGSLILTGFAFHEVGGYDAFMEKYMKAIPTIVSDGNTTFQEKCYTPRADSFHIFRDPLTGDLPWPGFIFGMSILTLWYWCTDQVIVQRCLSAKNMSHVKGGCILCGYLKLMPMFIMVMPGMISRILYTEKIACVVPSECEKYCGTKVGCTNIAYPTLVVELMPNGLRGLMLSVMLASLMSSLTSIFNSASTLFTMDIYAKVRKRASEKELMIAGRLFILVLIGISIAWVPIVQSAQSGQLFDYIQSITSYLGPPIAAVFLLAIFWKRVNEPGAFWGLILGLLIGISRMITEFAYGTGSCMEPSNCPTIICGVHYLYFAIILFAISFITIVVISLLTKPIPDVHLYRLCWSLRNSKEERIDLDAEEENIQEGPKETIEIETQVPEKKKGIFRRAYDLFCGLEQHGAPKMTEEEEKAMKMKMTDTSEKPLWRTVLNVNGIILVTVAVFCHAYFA

In the case of `C[C@H]1C(=O)NC[C@@H]1C(=O)Nc1cc(-c2cc(F)cc(OCC(F)(F)F)c2)n(-c2cncnc2)n1` [Example 32], the IC50 (human SGLT1) is reported as 69 nM.
`C[C@H]1C(=O)NC[C@@H]1C(=O)Nc1cc(-c2cc(F)cc(OCC(F)(F)F)c2)n(-c2ccc(C(F)(F)F)nc2)n1` [Example 33] showed an IC50 (human SGLT1) of 5.9 nM.
`C[C@H]1C(=O)NC[C@@H]1C(=O)Nc1cc(-c2cc(F)cc(OCC(F)(F)F)c2)n(-c2cncc(F)c2)n1` [Example 34] gave an IC50 (human SGLT1) of 9.8 nM.
Work on `C[C@H]1C(=O)NC[C@@H]1C(=O)Nc1cc(-c2cc(F)cc(OCC(F)(F)F)c2)n(-c2cncc(Cl)c2)n1` [Example 35] yielded an IC50 (human SGLT1) of 4.6 nM.
In the case of `COc1ncc(-n2nc(NC(=O)[C@H]3CNC(=O)[C@@H]3C)cc2-c2cc(F)cc(OC(C)(C)C(F)(F)F)c2)cn1` [Example 36], the IC50 (human SGLT1) is reported as 1.9 nM.
For `C[C@H]1C(=O)NC[C@@H]1C(=O)Nc1cc(-c2cc(F)cc(OC(C)(C)C(F)(F)F)c2)n(-c2cnc(N(C)C)nc2)n1` [Example 37], the IC50 (human SGLT1) was 0.98 nM.
`Cc1ncc(-n2nc(NC(=O)[C@H]3CNC(=O)[C@@H]3C)cc2-c2cc(F)cc(OC(C)(C)C(F)(F)F)c2)cn1` [Example 38] was tested, and the IC50 (human SGLT1) was 4 nM.
`Nc1cc(-c2cc(F)cc(OC(F)(F)F)c2)n(-c2cncc(F)c2)n1` [Metabolite 2] was tested, and the “Number of revertant colonies TA98” value ([1]; S9 mix +, dose 62 μg/plate) was 35, the “Number of revertant colonies TA98” value ([1]; S9 mix −, dose 21 μg/plate) was 30 and the “Number of revertant colonies TA98” value ([1]; S9 mix −, dose 185 μg/plate) was 28. The “Number of revertant colonies TA1537” value ([2]; S9 mix +, dose 6.9 μg/plate) was 12, the “Number of revertant colonies TA1537” value ([2]; S9 mix +, dose 21 μg/plate) was 13 and the “Number of revertant colonies TA1537” value ([2]; S9 mix +, dose 62 μg/plate) was 12. The “Number of revertant colonies TA1537” value ([2]; S9 mix +, dose 185 μg/plate) was 12, the “Number of revertant colonies TA1537” value ([2]; S9 mix +, dose 556 μg/plate) was 8 and the “Number of revertant colonies TA1537” value ([2]; S9 mix +, dose 1667 μg/plate) was 0. The “Number of revertant colonies TA1537” value ([2]; S9 mix +, dose 5000 μg/plate) was 1, the “Number of revertant colonies TA1537” value ([2]; S9 mix −, dose 6.9 μg/plate) was 9 and the “Number of revertant colonies TA1537” value ([2]; S9 mix −, dose 21 μg/plate) was 8. For the same compound, the “Number of revertant colonies TA1537” value ([2]; S9 mix −, dose 62 μg/plate) was 8, the “Number of revertant colonies TA1537” value ([2]; S9 mix −, dose 185 μg/plate) was 8 and the “Number of revertant colonies TA1537” value ([2]; S9 mix −, dose 556 μg/plate) was 3. For the same compound, the “Number of revertant colonies TA1537” value ([2]; S9 mix −, dose 1667 μg/plate) was 3, the “Number of revertant colonies TA1537” value ([2]; S9 mix −, dose 5000 μg/plate) was 2 and the “Number of revertant colonies WP2uvrA” value (Escherichia coli WP2uvrA; S9 mix +, dose 6.9 μg/plate) was 19. For the same compound, the “Number of revertant colonies WP2uvrA” value (Escherichia coli WP2uvrA; S9 mix +, dose 21 μg/plate) was 19, the “Number of revertant colonies WP2uvrA” value (Escherichia coli WP2uvrA; S9 mix +, dose 62 μg/plate) was 19 and the “Number of revertant colonies WP2uvrA” value (Escherichia coli WP2uvrA; S9 mix +, dose 185 μg/plate) was 19. The “Number of revertant colonies WP2uvrA” value (Escherichia coli WP2uvrA; S9 mix +, dose 556 μg/plate) was 17, the “Number of revertant colonies WP2uvrA” value (Escherichia coli WP2uvrA; S9 mix +, dose 1667 μg/plate) was 14 and the “Number of revertant colonies WP2uvrA” value (Escherichia coli WP2uvrA; S9 mix +, dose 5000 μg/plate) was 9. For the same compound, the “Number of revertant colonies WP2uvrA” value (Escherichia coli WP2uvrA; S9 mix −, dose 6.9 μg/plate) was 21, the “Number of revertant colonies WP2uvrA” value (Escherichia coli WP2uvrA; S9 mix −, dose 21 μg/plate) was 16 and the “Number of revertant colonies WP2uvrA” value (Escherichia coli WP2uvrA; S9 mix −, dose 62 μg/plate) was 23. The “Number of revertant colonies WP2uvrA” value (Escherichia coli WP2uvrA; S9 mix −, dose 185 μg/plate) was 20, the “Number of revertant colonies WP2uvrA” value (Escherichia coli WP2uvrA; S9 mix −, dose 556 μg/plate) was 16 and the “Number of revertant colonies WP2uvrA” value (Escherichia coli WP2uvrA; S9 mix −, dose 1667 μg/plate) was 13. The “Number of revertant colonies WP2uvrA” value (Escherichia coli WP2uvrA; S9 mix −, dose 5000 μg/plate) was 8, the “Number of revertant colonies TA100” value ([3]; S9 mix +, dose 6.9 μg/plate) was 109 and the “Number of revertant colonies TA100” value ([3]; S9 mix +, dose 21 μg/plate) was 119. For the same compound, the “Number of revertant colonies TA100” value ([3]; S9 mix +, dose 62 μg/plate) was 118, the “Number of revertant colonies TA100” value ([3]; S9 mix +, dose 185 μg/plate) was 125 and the “Number of revertant colonies TA100” value ([3]; S9 mix +, dose 556 μg/plate) was 115. For the same compound, the “Number of revertant colonies TA100” value ([3]; S9 mix +, dose 1667 μg/plate) was 97, the “Number of revertant colonies TA100” value ([3]; S9 mix +, dose 5000 μg/plate) was 92 and the “Number of revertant colonies TA100” value ([3]; S9 mix −, dose 6.9 μg/plate) was 89. For the same compound, the “Number of revertant colonies TA100” value ([3]; S9 mix −, dose 21 μg/plate) was 90, the “Number of revertant colonies TA100” value ([3]; S9 mix −, dose 62 μg/plate) was 87 and the “Number of revertant colonies TA100” value ([3]; S9 mix −, dose 185 μg/plate) was 86. For the same compound, the “Number of revertant colonies TA100” value ([3]; S9 mix −, dose 556 μg/plate) was 6, the “Number of revertant colonies TA100” value ([3]; S9 mix −, dose 1667 μg/plate) was 5 and the “Number of revertant colonies TA100” value ([3]; S9 mix −, dose 5000 μg/plate) was 5.
With `CC(C)(OCc1cc(F)cc(-c2cc(N)nn2-c2ccc(F)cc2)c1)C(F)(F)F` [Metabolite A, reference compound] the “potential to induce reverse mutations” value [1] was “had potential to induce reverse mutations” and the “potential to induce reverse mutations” value [2] was “had potential to induce reverse mutations”.
With `Nc1cc(-c2cccc(OC(F)(F)F)c2)n(-c2cccc(F)c2)n1` [Metabolite D, reference compound] the “potential to induce reverse mutations” value [4] was “had potential to induce reverse mutations” and the “potential to induce reverse mutations” value [3] was “had potential to induce reverse mutations”.
For `Cc1cccc(-n2nc(N)cc2-c2cccc(OC(F)(F)F)c2)c1` [Metabolite E, reference compound], the “potential to induce reverse mutations” value [1] was “had potential to induce reverse mutations”, the “potential to induce reverse mutations” value [2] was “had potential to induce reverse mutations” and the “potential to induce reverse mutations” value [3] was “had potential to induce reverse mutations”.
